In PubChem BioAssay (NCI):
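Exposure lasted 48 hours, with cells grown in 96-well plates and compounds tested at five concentrations. Here, GI50 denotes the concentration required for 50% inhibition of growth. TGI: total growth inhibition.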

Tests used:
Assay in all cases: NCI-60 cell line screen, 48 h
[1] = system: 786-0 renal
[2] = system: A498 renal
[3] = system: A549 NSCLC
[4] = system: ACHN renal
[5] = system: BT-549 breast
[6] = system: CAKI-1 renal
[7] = system: CCRF-CEM leukemia
[8] = system: COLO 205 colon
[9] = system: DU-145 prostate
[10] = system: EKVX NSCLC
[11] = system: HCC-2998 colon
[12] = system: HCT-116 colon
[13] = system: HCT-15 colon
[14] = system: HL-60(TB) leukemia
[15] = system: HOP-62 NSCLC
[16] = system: HOP-92 NSCLC
[17] = system: HS 578T breast
[18] = system: HT29 colon
[19] = system: IGROV1 ovarian
[20] = system: K-562 leukemia
[21] = system: KM12 colon
[22] = system: LOX IMVI melanoma
[23] = system: M14 melanoma
[24] = system: MALME-3M melanoma
[25] = system: MCF7 breast
[26] = system: MDA-MB-231 breast
[27] = system: MDA-MB-435
[28] = system: MOLT-4 leukemia
[29] = system: NCI-H226 lung
[30] = system: NCI-H23 lung
[31] = system: NCI-H460 lung
[32] = system: NCI-H522 lung
[33] = system: NCI/ADR-RES ovarian
[34] = system: OVCAR-3 ovarian
[35] = system: OVCAR-4 ovarian
[36] = system: OVCAR-5 ovarian
[37] = system: OVCAR-8 ovarian
[38] = system: PC-3 prostate
[39] = system: RPMI-8226 leukemia
[40] = system: RXF 393 renal
[41] = system: SF-268 CNS
[42] = system: SF-295 CNS
[43] = system: SF-539 CNS
[44] = system: SK-MEL-2 melanoma
[45] = system: SK-MEL-28 melanoma
[46] = system: SK-MEL-5 melanoma
[47] = system: SK-OV-3 ovarian
[48] = system: SN12C renal
[49] = system: SNB-19 CNS
[50] = system: SNB-75 CNS
[51] = system: SR leukemia
[52] = system: SW-620 colon
[53] = system: T-47D breast
[54] = system: TK-10 renal
[55] = system: U251 CNS
[56] = system: UACC-257 melanoma
[57] = system: UACC-62 melanoma
[58] = system: UO-31 renal

CC(C)c1ccc(C(=O)Nc2sc3c(c2C(N)=O)CCC(=O)C3)cc1
GI50 [1]: 2290 nM | TGI [1]: 10500 nM | GI50 [2]: 2330 nM | TGI [2]: 8520 nM | GI50 [3]: 1960 nM | TGI [3]: 13200 nM | GI50 [4]: 343 nM | TGI [4]: 1110 nM | GI50 [5]: 352 nM | TGI [5]: 1940 nM | GI50 [6]: 334 nM | TGI [6]: 1550 nM | GI50 [7]: 215 nM | TGI [7]: 4270 nM | GI50 [8]: 564 nM | TGI [8]: 1900 nM | GI50 [9]: 3160 nM | TGI [9]: 14300 nM | GI50 [10]: 1780 nM | TGI [10]: 5340 nM | GI50 [11]: 1850 nM | TGI [11]: 4230 nM | GI50 [12]: 311 nM | TGI [12]: 1430 nM | GI50 [13]: 387 nM | TGI [13]: 2120 nM | GI50 [14]: 615 nM | TGI [14]: 4820 nM | GI50 [15]: 3040 nM | TGI [15]: 18100 nM | GI50 [16]: 1290 nM | TGI [16]: 3670 nM | GI50 [17]: 534 nM | TGI [17]: 5270 nM | GI50 [18]: 484 nM | TGI [18]: 5340 nM | GI50 [19]: 491 nM | TGI [19]: 2140 nM | GI50 [20]: 207 nM | TGI [20]: 3830 nM | GI50 [21]: 450 nM | TGI [21]: 1850 nM | GI50 [22]: 373 nM | TGI [22]: 1710 nM | GI50 [23]: 522 nM | TGI [23]: 2440 nM | GI50 [24]: 1650 nM | TGI [24]: 4790 nM | GI50 [25]: 466 nM | TGI [25]: 5160 nM | GI50 [26]: 788 nM | TGI [26]: 2430 nM | GI50 [27]: 1490 nM | TGI [27]: 3620 nM | GI50 [28]: 461 nM | TGI [28]: 3170 nM | GI50 [29]: 2420 nM | TGI [29]: 7230 nM | GI50 [30]: 381 nM | TGI [30]: 2450 nM | GI50 [31]: 849 nM | TGI [31]: 3730 nM | GI50 [32]: 316 nM | TGI [32]: 1560 nM | GI50 [33]: 975 nM | TGI [33]: 5570 nM | GI50 [34]: 421 nM | TGI [34]: 1510 nM | GI50 [35]: 329 nM | TGI [35]: 1200 nM | GI50 [36]: 1160 nM | TGI [36]: 3080 nM | GI50 [37]: 710 nM | TGI [37]: 13300 nM | GI50 [38]: 242 nM | TGI [38]: 1310 nM | GI50 [39]: 127 nM | TGI [39]: 691 nM | GI50 [40]: 354 nM | TGI [40]: 1490 nM | GI50 [41]: 571 nM | TGI [41]: 3450 nM | GI50 [42]: 1420 nM | TGI [42]: 3610 nM | GI50 [43]: 359 nM | TGI [43]: 1490 nM | GI50 [44]: 2160 nM | TGI [44]: 5250 nM | GI50 [45]: 1180 nM | TGI [45]: 3010 nM | GI50 [46]: 1140 nM | TGI [46]: 2560 nM | GI50 [47]: 2620 nM | TGI [47]: 8020 nM | GI50 [48]: 515 nM | TGI [48]: 2350 nM | GI50 [49]: 472 nM | TGI [49]: 6020 nM | GI50 [50]: 795 nM | TGI [50]: 2650 nM | GI50 [51]: 413 nM | TGI [51]: 11000 nM | GI50 [52]: 256 nM | TGI [52]: 1600 nM | GI50 [53]: 312 nM | TGI [53]: 2100 nM | GI50 [54]: 1290 nM | TGI [54]: 3810 nM | GI50 [55]: 399 nM | TGI [55]: 1900 nM | GI50 [56]: 2050 nM | TGI [56]: 5040 nM | GI50 [57]: 460 nM | TGI [57]: 1910 nM | GI50 [58]: 267 nM | TGI [58]: 1100 nM

Cc1cc(SCC(=O)c2ccccc2)nc2ccccc12
TGI [1]: > 100000 nM | TGI [2]: > 100000 nM | TGI [3]: > 100000 nM | TGI [4]: > 100000 nM | TGI [5]: > 100000 nM | TGI [6]: > 100000 nM | TGI [8]: > 100000 nM | TGI [9]: > 100000 nM | TGI [10]: > 100000 nM | TGI [12]: > 100000 nM | TGI [13]: > 100000 nM | TGI [14]: > 100000 nM | TGI [15]: > 100000 nM | TGI [16]: > 100000 nM | TGI [17]: 64800 nM | TGI [18]: > 100000 nM | TGI [19]: > 100000 nM | TGI [20]: > 100000 nM | TGI [21]: > 100000 nM | TGI [22]: > 100000 nM | TGI [23]: > 100000 nM | TGI [24]: > 100000 nM | TGI [25]: > 100000 nM | TGI [26]: > 100000 nM | TGI [27]: > 100000 nM | TGI [28]: > 100000 nM | TGI [29]: > 100000 nM | TGI [30]: > 100000 nM | TGI [31]: > 100000 nM | TGI [32]: > 100000 nM | TGI [33]: > 100000 nM | TGI [34]: > 100000 nM | TGI [35]: > 100000 nM | TGI [36]: > 100000 nM | TGI [37]: > 100000 nM | TGI [38]: > 100000 nM | TGI [39]: > 100000 nM | TGI [40]: > 100000 nM | TGI [41]: > 100000 nM | TGI [42]: > 100000 nM | TGI [43]: > 100000 nM | TGI [44]: > 100000 nM | TGI [45]: > 100000 nM | TGI [46]: > 100000 nM | TGI [48]: > 100000 nM | TGI [49]: > 100000 nM | TGI [50]: > 100000 nM | TGI [51]: > 100000 nM | TGI [52]: > 100000 nM | TGI [53]: > 100000 nM | TGI [54]: > 100000 nM | TGI [55]: > 100000 nM | TGI [56]: > 100000 nM | TGI [57]: > 100000 nM | TGI [58]: > 100000 nM
